Data set [1] concerns HepG2 cells. The data set is described as follows: Assessment of superoxide level (mitoSOX red). It counts as cell-based. To be noted: 2 h; for concentration significantly increasing cellular superoxide: HepG2 cells, glucose medium, 15–500 µM; for superoxide level in galactose media: acutely galactose-conditioned HepG2 cells, up to 500 µM. As to the method:
HepG2 cells were collected by trypsinization and seeded on a 24-well plate (150 000 cells/500 µl/well) and incubated overnight in glucose medium (37°C, 5% CO2). […] Protein content per well was determined using a BCA assay (as described earlier) and was used to normalize superoxide levels.

Data set [2] concerns mitochondrial respiratory complex IV. The data set is described as follows: In situ respiratory complex assay in permeabilized cells, complex IV. As to conditions: uncoupled, permeabilized HepG2 cells, 10–250 µM. It counts as cell-based.
The test system of data set [3] is HepG2 cells. Briefly: Assessment of NAD+/NADH ratio. In kind it is cell-based. To be noted: 2 h, glucose medium, 30–500 µM. On the procedure: HepG2 cells were collected by trypsinization and seeded on a 24-well plate (450 000 cells/500 µl/well) and incubated overnight in glucose medium (37 °C, 5% CO2). […] NAD^+ and NADH concentrations were measured in lysates using a NAD^+/NADH ratio assay kit according to the manufacturer’s instructions.

The subject of data set [4] is mitochondrial respiratory complex II. The data set is described as follows: In situ respiratory complex assay in permeabilized cells, complex II. It counts as cell-based. To be noted: uncoupled, permeabilized HepG2 cells, 10–250 µM.
The conditions of data set [5]: cited from earlier work; for half-life: after flutamide administration, ref Kostrubsky et al., 2007; for Cmax: plasma, ref Schulz et al., 1988, read-out: maximum plasma concentration (Cmax).
Another data set deals with Complex V (ATP synthase). The data set is described as follows: Complex V assay in permeabilized cells. In kind it is cell-based. As to conditions: permeabilized HepG2 cells, OCR change coupled vs uncoupled cells, 10–250 µM. As to the method: The assay consisted of a basal OCR measurement of 2 cycles of mix (30 s), wait (30 s), and measure (2 min) followed by MAS or FCCP injection (0.5 µM) and 2 measurement cycles. MAS-injected cells remain coupled whereas FCCP-injected cells become uncoupled meaning Complex V (ATP synthase) inhibition should not result in a change in OCR. […] FIG. 4 Representative complex V assay trace. Complex V assays consisted of cells in a solution containing substrates for complex IV before a series of compound injections into the cell culture microplate. FCCP (OXPHOS uncoupler) (Trace A) or MAS buffer (Traces B and C) was first injected, followed by 2 cycles of measurements. Flutamide, 2-hydroxyflutamide, oligomycin (positive control), or vehicle control was then injected into both the uncoupled (FCCP-treated) and coupled (MAS-treated) cells. […] Each measurement cycle was a total of 3 min. Following completion of OCR assays, medium was removed from all wells and 20 µl of somatic cell ATP releasing agent was added to each well before shaking for 1 min and transfer of 10 µl of lysate to a 96-well plate and performance of a BCA assay according to the manufacturer’s instructions. Protein content per well was used to normalize OCR.

In data set [6] the test system is mitochondrial respiratory complex III. Briefly: Complex III-linked respiration assay in permeabilized cells. In kind it is cell-based. To be noted: permeabilized HepG2 cells, complex III-stimulated maximal respiration, 10–250 µM. As to the method:
(§1) Culture medium was replaced with MAS buffer containing constituents to stimulate oxygen consumption via complex I (as previously without FCCP), complex II (ADP; 4.6 mM, succinate; 20 mM, rotenone; 1 µM, BSA; 0.2% w/v, PMP; 1 nM), or complex III (ADP; 4.6 mM, duroquinol; 500 μM, rotenone; 1 μM, malonic acid; 40 μM, BSA; 0.2% w/v, PMP; 1 nM) dependent on the respiratory complex of interest. […] Changes in complex II activity were also assessed at lower compound concentrations; 2–30 μM (Supplementary Figure S1). Complex I, II, and III activity were defined by the change in complex I, II, or III-stimulated maximal respiration respectively compared with vehicle control.
(§2) Following completion of OCR assays, medium was removed from all wells and 20 µl of somatic cell ATP releasing agent was added to each well before shaking for 1 min and transfer of 10 µl of lysate to a 96-well plate and performance of a BCA assay according to the manufacturer’s instructions. Protein content per well was used to normalize OCR.

The test system of data set [7] is mitochondrial respiratory complex I. The data set is described as follows: In situ respiratory complex assay in permeabilized cells, complex I. It counts as cell-based. To be noted: uncoupled, permeabilized HepG2 cells, 10–250 µM.
Data set [8] has the same test system. The data set is described as follows: Complex I-linked respiration assay in permeabilized cells. As to conditions: for concentration inducing a significant reduction in complex I activity: permeabilized HepG2 cells, complex I-stimulated maximal respiration vs vehicle control, 10–250 µM. In kind it is cell-based. As to the method: as §1, §2
The subject of a further data set is bile salt export pump. On the set-up: method as in Kostrubsky et al., 2007. To be noted: via bile salt export pump inhibition; ref Kostrubsky et al., 2007; read-out: IC50 inhibition of taurocholate efflux; cited from earlier work.
Data set [9] deals with mitochondrial respiratory complex II. The data set is described as follows: Complex II-linked respiration assay in permeabilized cells. To be noted: permeabilized HepG2 cells; for complex II activity: complex II-stimulated maximal respiration vs vehicle control, 10–250 µM. In kind it is cell-based. As to the method: as §1, §2
Data set [10] deals with HepG2 cells. Briefly: Cellular ATP content of HepG2 cells in glucose or galactose medium (ATP bioluminescent assay). It counts as cell-based. To be noted: 2 h; for decrease in ATP content in galactose medium compared with glucose medium: up to 300 µM; for EC50: Homo sapiens, concentration reducing cellular ATP content by 50%; for EC50ATPglu/EC50ATPgal: ratio ≥ 2 identifies a mitochondrial liability. On the procedure:
Metabolic switching of cells was performed based on work previously described by ([[…] et al., 2015]). Briefly, 24 h prior to metabolic switch, HepG2 cells were collected by trypsinization and seeded on a collagen-coated flat-bottomed 96-well plate (20 000 cells/50 μl/well) and incubated (37°C, 5% CO2) overnight. […] Flutamide, 2-hydroxyflutamide and bicalutamide stock solutions were prepared in DMSO and diluted further in the appropriate medium. Compounds (50 μl) were then added to each well and cells were incubated for 2 h (37 °C, 5% CO2). All assays used ≤ 0.5% DMSO as a vehicle control. […] LDH content of the cells and supernatant was assessed using a cytotoxicity detection kit according to the manufacturer's instructions. ATP content was assessed using an ATP bioluminescent assay according to the manufacturer's instructions. Briefly, 10 μl of cell lysate or ATP standard curve solutions were added to a white-walled 96-well plate before addition of 40 μl ATP assay mix. Protein content of all wells was then assessed using a BCA assay applied to 10 μl of cell lysate and standards. LDH (490 nm), BCA (570 nm), and ATP assay luminescence were then measured using a plate reader (Varioskan, Thermo Scientific). ATP content readings were normalized to protein content. Experiments were conducted in a minimum of triplicate to ensure the reliability of single values. EC50 data were determined by nonlinear regression analysis using GraphPad Prism 5.0. Normality was assessed using a Shapiro-Wilk statistical test. Statistical significance was determined by an unpaired t-test for parametric data and a Mann-Whitney U test for non-parametric data using StatsDirect 2.7.9. P < .05 was taken as showing a significant difference.

[11] abbreviates: galactose medium, read-out: EC50ATP (μM) Galactose.
Where [12] appears, read: glucose medium, read-out: EC50ATP (μM) Glucose.

pIC50: −log10 of the molar value. Like-named read-outs stand apart in the source and are kept apart here. Where only a bound is given, the exact number is not on record here.

Regarding `CC(C)(O)C(=O)Nc1ccc([N+](=O)[O-])c(C(F)(F)F)c1` [2-hydroxyflutamide], in the data set with HepG2 cells [1], the “concentration significantly increasing cellular superoxide” value was ≥ 30 µM and the “superoxide level in galactose media” value was “significant increase”. In addition, the “complex IV activity” value in data set [2] is on record as “Neither compound appeared to have a significant impact”. Also, in the data set with HepG2 cells [3], the “NAD+/NADH ratio” value is reported as “significantly decreased” and the “concentration significantly decreasing NAD+/NADH ratio” value is recorded as ≥ 100 µM. Further, the “complex II activity (response to succinate)” value in [4] is recorded as “significantly reduced response”. In addition, the half-life (in general, how long it takes for the measured level to halve) in data set [5] is reported as 9.6 h. The Cmax in data set [5] (metabolite after single 250 mg dose of flutamide) was 4400 nM. Moreover, the “concentration inducing a significant reduction in complex V activity” value with Complex V (ATP synthase) is listed as ≥ 125 µM. For the same molecule, the “complex III activity” value in data set [6] is given as “no significant inhibition”. In addition, the “complex I activity (response to rotenone)” value in [7] was “significant reduction in complex I activity”. The “concentration inducing a significant reduction in complex I activity” value in data set [8] is recorded as ≥ 30 µM. In the data set on bile salt export pump, the pIC50 (usually the negative decadic logarithm of the IC50, by convention in mol/L) is 3.96. Also, the “complex II activity” value in [9] is listed as “significant reduction”. Also, in [9] (complex II-stimulated maximal respiration, 2–30 and 10–250 µM), the “concentration inducing a significant decline in complex II activity” value is ≥ 10 µM. In addition, the “decrease in ATP content in galactose medium compared with glucose medium” value in the data set with HepG2 cells [10] is “significantly more in the galactose medium”. For the same molecule, the EC50 in the data set with HepG2 cells [10] (setting [11]) amounted to 48.5 µM. The EC50 with HepG2 cells [10] (setting [12]) amounted to 267 µM.
On to `CC(C)C(=O)Nc1ccc([N+](=O)[O-])c(C(F)(F)F)c1` [Flutamide], for which, in the data set on HepG2 cells [1], the “concentration significantly increasing cellular superoxide” value is on record as ≥ 30 µM and the “superoxide level in galactose media” value is “significant increase”. For the same molecule, the “complex IV activity” value in data set [2] is “Neither compound appeared to have a significant impact”. In addition, in the data set on HepG2 cells [3], the “NAD+/NADH ratio” value is reported as “significantly decreased” and the “concentration significantly decreasing NAD+/NADH ratio” value is listed as ≥ 100 µM. For the same molecule, the “complex II activity (response to succinate)” value in data set [4] was “Only 2-hydroxyflutamide induced a significantly reduced response”. For the same molecule, in data set [5], the half-life was 7.8 h. Besides, the Cmax in data set [5] (single 250 mg dose of flutamide) was 72.2 nM. In addition, the “parent drug as share of detectable compound in the plasma following administration” value in data set [5] (ref Radwanski et al., 1989) is given as 2.5%. For the same molecule, the “complex V activity” value with Complex V (ATP synthase) is on record as “this was not the case for flutamide”. In addition, the “complex III activity” value in [6] is recorded as “no significant inhibition”. The “complex I activity (response to rotenone)” value in data set [7] is listed as “significant reduction in complex I activity”. Further, in data set [8] (permeabilised HepG2 cells, up to 250 µM), the “OCR upon compound injection, complex I assay” value was “immediate concentration-dependent reduction in OCR”. In [8], the “concentration inducing a significant reduction in complex I activity” value is listed as ≥ 30 µM. In the data set on bile salt export pump, the negative-log IC50 (pIC50) was 4.12. Also, the “complex II activity” value in data set [9] is “only 2-hydroxyflutamide and not flutamide induced a significant reduction”. In the data set on HepG2 cells [10], the EC50ATPglu/EC50ATPgal is 5.82 (0.03) and the “decrease in ATP content in galactose medium compared with glucose medium” value is “significantly more in the galactose medium”. In addition, in the data set on HepG2 cells [10] (listed as flutamide), the EC50ATPglu/EC50ATPgal is reported as ≥ 2. Further, the EC50 in the data set with HepG2 cells [10] (setting [11]) was determined as 43.9 µM. Also, in the data set on HepG2 cells [10] (setting [12]), the EC50 came to 255 µM.

These data come from publication PMC5036617 (Toxicological Sciences, 2016).
